According to US8071099B2, “Anti-FLT3 antibodies” (ImClone, LLC, priority 2008, dated 2011):

Tests used:
SEM-K2 cells = assay: Combination therapy with EB10 and MTX in SEM-K2 Leukemia Model; type: in vivo, NOD/SCID mice; conditions: EB10 10 mg/kg i.p. 2×/week; MTX 100 mg/kg Q7D; combination of both
Experimental: One day prior to the start of treatment, i.v. inject 65, 7 weeks old, male NOD/SCID mice with 5×10^5 SEM-K2 cells suspended in PBS in a total volume of 200 μl. Drop from the study mice receiving less than 90% of cells intravenously.
Prepare MTX (Sigma Chemical, Cat # M9929) in USP Saline at a concentration of 10 mg/ml and dose Q7D for three cycles. […] Dose all mice at 10 ml/kg i.p. In the combination group, dose MTX at least one hour before EB 10 treatment starting on day 1. Record mouse survival daily. Follow the mice for survival, and sacrifice any mouse displaying signs of morbidity/mortality; mark as dead on the day of sacrifice. End the study on day 168 and sacrifice any mice surviving to that point. Compare survival in the treatment groups by Log Rank Test between treatment groups.

[1] = tested on: FLT3-negative JM1 or BaF3-control cell lines; assay: Flow cytometric analysis, FLT3-negative cell lines; type: binding
BaF3-ITD cells = assay: Cell proliferation assay ([3H]-thymidine), FL-independent, BaF3-ITD; type: cell-based
Experimental: Harvest EOL-1 cells and wash three times using serum-free RPMI 1640 medium. Culture cells in serum-free RPMI 1640 medium for 12 hours. For BaF3-ITD cells, perform the proliferation assay in RPMI 1640 medium supplemented with 10% FCS in the absence of exogenous FL. Reconstitute cells in serum-free AIM-V medium, plate in triplicates in a flat-bottomed 96-well plate (1×104/100 μl/well) and incubate with varying concentrations of antibodies (from 0 to 100 nM) and 30 ng/ml of FL at 37° C. for 68 hours. As a background control, incubate cells with medium alone in the absence of exogenous FL. Pulse cells with 0.25 μCi/well of [^3H]-thymidine for 4 hours. Harvest cells and measure cpm in a PerkinElmer Wallace-1205 Betaplate Liquid Scintillation Counter (Wellesley, Mass.). Calculate the percent inhibition of FL-induced proliferation for EOL-1 cells; deduce the cpm of background proliferation (i.e., cell samples not stimulated with FL) from the cpm of all experimental samples. Calculate percent inhibition using the following formula: [(cpm of untreated sample—cpm of antibody-treated sample)/cpm of untreated sample]×100%.

EOL-1 leukemia cells = assay: EOL-1 Xenograft Human AML Leukemia Model; type: in vivo, NOD-SCID mice; conditions: 10 μg
Human Leukemia Cells = assay: Bone Marrow Engraftment of Human Leukemia Cells; type: in vivo, mice; conditions: 500 μg/dose, versus control-IgG treated group
Experimental: Bone Marrow Engraftment of Human Leukemia Cells: Harvest bone marrow from the femurs of EB10-treated mice (500 μg/dose) and the control-IgG treated group at day 20. Analyze cells for human CD45 by flow cytometry at 6 and 14 weeks post leukemia cell injection for the degree of tumor cell infiltration of bone marrow. Compare the degree of tumor cell infiltration of bone marrow using immunohistochemical staining with a fluorescence-labeled anti-human CD45 antibody.

Molecule: CN(Cc1cnc2nc(N)nc(N)c2n1)c1ccc(C(=O)N[C@@H](CCC(=O)O)C(=O)O)cc1 [MTX, methotrexate, reference compound]
- mouse survival (SEM-K2 cells): also prolonged survival

Molecule: EB10: recombinant human monoclonal antibody, full length IgG1κ targeting human FLT3; heavy chain SEQ ID NO:25, light chain SEQ ID NO:28
- binding by flow cytometric analysis ([1]; BaF3-control cell line): No binding
- binding by flow cytometric analysis ([1]; FLT3-negative JM1 cell line): No binding
- % Inhibition of FL-independent proliferation (Mean ± Standard deviation) (BaF3-ITD cells; 6 nM): 9.6 ± 3.1%
- % Inhibition of FL-independent proliferation (Mean ± Standard deviation) (BaF3-ITD cells; 13 nM): 13.0 ± 4.0%
- % Inhibition of FL-independent proliferation (Mean ± Standard deviation) (BaF3-ITD cells; 25 nM): 23.3 ± 0.6%
- % Inhibition of FL-independent proliferation (Mean ± Standard deviation) (BaF3-ITD cells; 50 nM): 28.6 ± 3.1%
- % Inhibition of FL-independent proliferation (Mean ± Standard deviation) (BaF3-ITD cells; 100 nM): 29.2 ± 3.0%
- effect on survival (EOL-1 leukemia cells): No effect
- number of tumor cells in bone marrow (human CD45) (Human Leukemia Cells): decreased significantly
- mouse survival (SEM-K2 cells): significantly prolonged mouse survival
